Data on eight compounds can be found in patent US20050267051A1, “Antineoplastic and anti-HIV conjugates of steroid acid and nucleosides” (priority 2003, published 2005).

One data set concerns MCF7. The data set is described as follows: Growth inhibition assay, MCF7. Type of data set: cell-based, human. The following applies: 10 μg/ml; MCF7 breast carcinoma. The text has this:
(§1) Cell growth inhibitory activity against human lymphoblasts (H9 cells) for compounds (4), (5) and (6) is depicted in FIG. 1. […] Conjugate (4) was further tested against ddC resistant H9 cells (H9/ddC cells that have reduced thymidine and deoxycytidine kinase activities); HL60, HL60/araC (human promyclocytic leukemic cell lines, parental and araC resistant), H29, H29/FU (human colon adenocarcinomas, parental and FU resistant), MCF7 (human breast carcinoma) and BL5 (Burkitt lymphoma cell line). At 10 μg/ml, it produced 85-100% growth inhibition in all of these human tumor cell lines.
(§2) Growth inhibition assays were performed in triplicate by seeding 5×10^4 Cells/ml in 24-well plates (Costar). Test compounds were added, and the trypan blue-excluding cells were counted after 72 hrs of incubation at 37° C. IC50 values were calculated from growth inhibition curves as described in Agarwal, R. P., and Mian, A. Biochem. Pharmacol. 1991, 42, 905 and Agarwal, Ram P., Han, Tieran, Fernandez, Manilyn. Biochemical and Biophysical Research com in un ica lions. 1999, 262, 657.

Another data set concerns HL60. Put plainly: Growth inhibition assay, HL60. The settings on record: 10 μg/ml; HL60 promyelocytic leukemic, parental. In kind it is cell-based, human.
Text: as §1, §2

Data set [1] deals with T4 lymphocytes (CEM-SS cell line). Put plainly: Cytotoxicity in uninfected CEM-SS cells (toxicity control of anti-HIV assay). Type of data set: cell-based. An excerpt:
(§3) The ester conjugates were subjected to standard in vitro anti-HIV bioassays [see: with T4 lymphocytes (CEM-SS cell line) according to the standard assays described, for example in Bourinbaiar AS, Lee-Huang S. Contraception 1995; 51:319-22 and http://www.iaen.org/files.cgi/7014_Bourinbaiar.pdf. Drug efficacy (EC50) was obtained by adding HIV and AZT conjugate to the cell to measure protection of the drug against HIV-induced celldeath. The cytotoxicity (IC50) data was obtained from adding only the conjugate to the cell to measure cell death caused by the agent. The therapeutic index (TI) is the ratio IC50/EC50. […] These two active agents appear to have less cytotoxicity and weaker anti-HIV potency than AZT. […] This intriguing profile of conjugate (4) prompted further evaluations of its growth inhibition in comparison to (5) and (6).
(§4) The anti-HIV assay was carried out with T4 lymphocytes (CEM-SS cell line) through the following standard procedure. Agent is dissolved in dimethyl sulfoxide and diluted 1:100 in cell culture medium before preparing serial half-log 10 dilutions. T4 lymphocytes are added and after a brief interval HIV-1 is added, resulting in a 1:200 final dilution of the compound. Uninfected cells with the compound serve as a toxicity control, and infected and uninfected cells without the compound serve basic controls. Cultures are incubated at 37° C. in a 5% carbon dioxide atmosphere for 6 days. The tetrazolium salt, XTT, is added to all wells, and the cultures are incubated to allow formazan color development. Individual wells are analyzed spectrophotometrically to quantitate formazan production, and in addition are viewed microscopically for detection of viable cells and confirmation of protective activity.
(§5) Drug-treated virus-infected cells are compared with drug-treated non-infected cells and with other appropriate controls (untreated infected and untreated non-infected cells, drug-containing wells without cells, etc.) on the same plate. Data are reviewed in comparison with other tests done at the same time and a determination concerning activity is made (Table 1).

The next data set deals with H29/FU. Put plainly: Growth inhibition assay, H29/FU. In kind it is cell-based, human. The following applies: 10 μg/ml, FU resistant.
Text: as §1, §2

Data set [2] deals with H9 cells. The data set is described as follows: Growth inhibition (anti-growth) assay on H9 cells, trypan blue exclusion count. Type of data set: cell-based, human. The settings on record: for IC50: Homo sapiens, H9.
Text: Anti-growth activity on H-9 cells is summarized by IC50 data (drug concentration measured by […]g/ml needed to inhibit 50% of the cell growth), derived from dose-response curves.
as §1, §2

The test system of a further data set is H9/ddC cells. Put plainly: Growth inhibition assay, ddC resistant H9 cells. Type of data set: cell-based, human. The following applies: 10 μg/ml.
Text: as §1, §2

The next data set relates to HL60/araC. Put plainly: Growth inhibition assay, HL60/araC. In kind it is cell-based, human. The settings on record: 10 μg/ml, araC resistant.
Text: as §1, §2

Data set [3] deals with H9 cells. The data set is described as follows: Apoptosis assay, Annexin V-FITC and propidium iodide staining, flow cytometry. The following applies: 10 μg/ml, 48 hrs; FIG. 4. Type of data set: cell-based, human. As to the method:
In the experiments, fractions of cells in various stages of apoptotic death were assessed according to standard assays [see, e.g., http://www.blackwell-synergy.com/links/doi/10.1046/j.1365-2184.2003.00283.x/abs/; http://64.177.90.157/pfpc/Fluoride_Machalinski—2003.pdf and http://jpet.aspetjournals.org/cgi/content/full/310/1/126 by simultaneous Annexin V and propidium iodide staining using flow cytometry.
Apoptosis experiments were carried out by treating H9 Cells […] with compound 4 (10 μg/ml), AZT (10 μg/ml) or cholenic acid (10 μg/ml) for 48 hrs. Cells were collected by centrifugation, washed with growth medium, and stained with Annexin V-FITC and propidium iodide (apoptosis dilution kit; Sigma), according to the manufacturer's protocol, and the fluorescence was analyzed via flow cytometry.
On the technique in general: In flow cytometry, cells or beads pass a laser one at a time.

The test system of another data set is HIV-1. The data set is described as follows: Anti-HIV assay with T4 lymphocytes (CEM-SS cell line), XTT, protection against HIV cytopathic effects. In kind it is cell-based. The settings on record: for Anti-HIV activity (in words): in vitro anti-HIV bioassays; for EC50: read-out: EC50 (50% effective concentration against HIV cytopathic effects).
Text: as §3, §4, §5
A general note: Tetrazolium dyes change colour on reduction, which living cells bring about.

Data set [4] in a line: Cytotoxicity in uninfected CEM-SS cells (toxicity control of anti-HIV assay). Type of data set: cell-based. The settings on record: human, uninfected CEM-SS cells (T4 lymphocytes); CEM-SS cell line, uninfected; average of two repeat experiments; read-out: IC50 (50% inhibitory concentration for cell growth), cytotoxicity.
Text: as §3, §4, §5

[5] abbreviates: H-9 cells, derived from dose-response curves, read-out: IC50 (drug concentration needed to inhibit 50% of the cell growth), anti-growth activity on H-9 cells.
The mark [6] stands for this setting: FIG. 1, 72 hrs incubation, read-out: IC50, cell growth inhibitory activity against human lymphoblasts (H9 cells).

≈ marks a conversion by molar mass, not a printed value. Read-outs that look alike come from different tables or passages of the source.

Turning to “3′-Azido-3′-deoxythymidine-5′-[3β-acetyloxy-22,23-bisnor-5-cholenate] [compound 4]”, the growth inhibition in the data set on MCF7, in the data set on HL60, in the data set on H29/FU, with H9/ddC cells and in the data set with HL60/araC was 85-100% throughout. Moreover, the IC50 in [1] (CEM-SS cell line, uninfected, average of two repeat experiments, read-out: IC50 (50% inhibitory concentration for cell growth), cytotoxicity) stood at 4700 nM. In addition, in [1] (CEM-SS cells, conjugate only), the “Cytotoxicity (in words)” value was “high cytotoxicity”. Also, the “cytotoxicity after 24 hrs drug exposure” value with H9 cells [2] (5 μg/ml, 24 hrs exposure, FIG. 3) is reported as “Substantially more cytotoxicity”. Besides, the “cytotoxicity after 72 hrs drug exposure” value in the data set on H9 cells [2] (5 μg/ml, 72 hrs exposure, FIG. 3) is “only gave a plateau”. Further, the “cell growth inhibition after 4 hrs drug exposure” value with H9 cells [2] (1 or 5 μg/ml, 4 hrs exposure, FIG. 3) was “did not produce any inhibition”. Moreover, the “cell growth inhibition after 8 hrs drug exposure” value in the data set with H9 cells [2] (1 or 5 μg/ml, 8 hrs incubation, FIG. 3) is reported as 20-25%. Also, in the data set with H9 cells [2] (FIG. 1, 72 hrs incubation), the “IC50, cell growth inhibitory activity against human lymphoblasts (H9 cells)” value was about 2.5 µg/mL. For the same compound, the “Inhibition of growth of H9 cells (in words)” value in the data set on H9 cells [2] (FIG. 2, 5 μg/ml for (4)) is “prevented growth of H9 cells almost completely”. The “cells induced to apoptosis” value with H9 cells [3] is about 90%. Besides, the “EC50 (50% effective concentration against HIV cytopathic effects)” value with HIV-1 (CEM-SS cell line, average of two repeat experiments) was “inactive”. For the same compound, the “Anti-HIV activity (in words)” value in the data set on HIV-1 was “no anti-HIV activity”.
On to `Cc1cn(C2C[C@H](N=[N+]=[N-])C(COC(=O)CCC(C)C3CCC4C5CCC6CCCCC6(C)C5CCC34C)O2)c(=O)[nH]c1=O` (stereo partly shown) [A, 5-Cholanic acid, 5′-(3′-azido-3′-deoxythymidinyl) ester], for which the IC50 with H9 cells [2] (setting [5]) came to 30 µg/mL (≈ 49.2 µM).
Still for that read-out and setting: under `Cc1cn(C2C[C@H](N=[N+]=[N-])C(COC(=O)CCC(C)C3CCC4C5C(=O)CC6CC(=O)CCC6(C)C5CC(=O)C34C)O2)c(=O)[nH]c1=O` (stereo partly drawn) [B, 5β-Cholanic acid-3,7,12-trione, 5′-(3′-azido-3′-deoxythymidinyl) ester] stands 30 µg/mL (≈ 46 µM).
For the compound `CC(=O)O[C@@H]1CCC2(C)C(CCC3C2CCC2(C)C(C(C)CCC(=O)OCC4OC(n5cc(C)c(=O)[nH]c5=O)C[C@@H]4N=[N+]=[N-])CCC32)C1` (stereo partly drawn) [C, 3α-Acetyloxy-5[…]-Cholanic acid, 5′-(3′-azido-3′-deoxythymidinyl) ester], in the data set with H9 cells [2] (setting [5]), the IC50 stood at 4 µg/mL (≈ 5.99 µM).
On the same count and under the same terms, under `CC(=O)O[C@H]1CCC2(C)C(=CCC3C2CCC2(C)C(C(C)C(=O)OCC4C=CC(n5cc(C)c(=O)[nH]c5=O)O4)CCC32)C1` (stereo partly drawn) [D, 3β-Acetyloxy-23,24-bisnor-5-cholenic acid, 5′-(3′-deoxy-2′,3′-didehydrothymidinyl) ester] stands 4 µg/mL (≈ 6.73 µM).
Consider `CC(=O)O[C@H]1CCC2(C)C(=CCC3C2CCC2(C)C(C(C)C(=O)OCC4CCC(n5cc(C)c(=O)[nH]c5=O)O4)CCC32)C1` (stereo partly drawn) [E, 3β-Acetyloxy-23,24-bisnor-5-cholenic acid, 5′-(3′-deoxythymidinyl) ester], for which, in the data set with H9 cells [2] (setting [5]), the IC50 turned out to be 3 µg/mL (≈ 5.03 µM).
In the case of `COC(OC)C(=O)[C@H]1[C@H](C(=O)OC[C@H]2O[C@@H](n3cc(C)c(=O)[nH]c3=O)C[C@@H]2N=[N+]=[N-])C[C@H]2[C@@H]3CCC4=CC(=O)C=C[C@]4(C)[C@H]3[C@@H](O)C[C@@]21C` [compound 5, 3′-Azido-3′-deoxythymidine-5′-[21,21-dimethoxy-3,20-dioxo-11β-hydroxy-1,4-pregnadiene-16α-carboxylate]], in the data set on H9 cells [2] (setting [6]), the IC50 is about 12 µg/mL (≈ 17.6 µM). In addition, the EC50 in the data set on HIV-1 (Human immunodeficiency virus 1, CEM-SS) was 35 nM. Further, in the data set with HIV-1, the “Anti-HIV activity (in words)” value is reported as “active”.
As to `Cc1cn(C2C[C@H](N=[N+]=[N-])C(COC(=O)[C@@H]3OC(C)(C)O[C@@]34CCC3C5CCC6=CC(=O)C=CC6(C)C5C(O)CC34C)O2)c(=O)[nH]c1=O` (stereo partly drawn) [compound 6, 3′-Azido-3′-deoxythymidine-5′-[11β-hydroxy-17,20α-isopropylidenedioxy-3-oxo-1,4-pregnadiene-21-oate]], in [4], the IC50 at 6 days is 12000 nM. Besides, the IC50 in the data set with H9 cells [2] (setting [6]) was about 10 µg/mL (≈ 15 µM). Besides, the EC50 with HIV-1 (Human immunodeficiency virus 1, CEM-SS cell line, average of two repeat experiments) turned out to be 65 nM. Also, the “Anti-HIV activity (in words)” value with HIV-1 is “active”.
